Measurements published in paper PMC4996973, “Topology and structure of an engineered human cohesin complex bound to Pds5B” (Nature Communications, 2016).

Tests used:
[1] = biological target: T1, bonsai cohesin trimer (Smc1^B, Smc3^B, Scc1) (Homo sapiens, UniProt Q14683+Q9UQE7, Q9UQE7:K38A/Q14683:DEL201-498/Q9UQE7:DEL205-491/Q14683:DEL676-977/Q9UQE7:DEL686-956); test: radiolabelled ATPase assay, thin layer chromatography of released […]-Pi; assay type: biochemical; conditions: labelled compound (γ-32P); ATP-binding region mutant, ATPase largely abolished
T1 construct: gene SMC1A; coiled coils of Smc1 and Smc3 truncated and replaced by two-residue linkers (superscript B = bonsai, not the SMC1B paralogue); Smc3^B-FLAG, Scc1-10HIS tags; co-expressed from baculovirus in Sf9; stoichiometric trimer, 222 kDa; with Double-strand-break repair protein rad21 homolog

[2] = biological target: T2, bonsai cohesin trimer (Smc1^B, Smc3^B, Scc1) (Homo sapiens, UniProt Q14683+Q9UQE7, Q14683:DEL201-498/Q9UQE7:DEL205-491/Q14683:DEL676-977/Q9UQE7:DEL686-956); test: as above; assay type: biochemical; conditions: labelled compound (γ-32P)
T2 construct: gene SMC1A; coiled coils of Smc1 and Smc3 truncated and replaced by two-residue linkers (superscript B = bonsai, not the SMC1B paralogue); Smc3^B-FLAG, Scc1-10HIS tags; co-expressed from baculovirus in Sf9; stoichiometric trimer, 222 kDa; with Double-strand-break repair protein rad21 homolog

[3] = biological target: T2, bonsai cohesin trimer (Smc1^B, Smc3^B, Scc1); test: differential scanning fluorimetry (thermal shift); assay type: binding; conditions: slowly hydrolysable ATP analogue; stabilises the complex; trimer inferred from context
Pds5B^10HIS [4] = biological target: T3, Pds5B^10HIS (human, UniProt Q9NTI5 1-1447); test: negative staining EM, single-particle 3D reconstruction; GraFix-prepared complexes (0.1% glutaraldehyde gradient, ATPγS), uranyl formate stain; 3D models at 28-35 Å; densities assigned by difference maps; conditions: both partners purified
T3 construct: Pds5B, human, recombinant; printed mass 165 kDa; source: sf9 cells (baculovirus), purified (Ni-NTA; imidazole removed by dilution and concentration or by size-exclusion chromatography on Superdex 200), freeze-thawed
T3 sequence (looked up): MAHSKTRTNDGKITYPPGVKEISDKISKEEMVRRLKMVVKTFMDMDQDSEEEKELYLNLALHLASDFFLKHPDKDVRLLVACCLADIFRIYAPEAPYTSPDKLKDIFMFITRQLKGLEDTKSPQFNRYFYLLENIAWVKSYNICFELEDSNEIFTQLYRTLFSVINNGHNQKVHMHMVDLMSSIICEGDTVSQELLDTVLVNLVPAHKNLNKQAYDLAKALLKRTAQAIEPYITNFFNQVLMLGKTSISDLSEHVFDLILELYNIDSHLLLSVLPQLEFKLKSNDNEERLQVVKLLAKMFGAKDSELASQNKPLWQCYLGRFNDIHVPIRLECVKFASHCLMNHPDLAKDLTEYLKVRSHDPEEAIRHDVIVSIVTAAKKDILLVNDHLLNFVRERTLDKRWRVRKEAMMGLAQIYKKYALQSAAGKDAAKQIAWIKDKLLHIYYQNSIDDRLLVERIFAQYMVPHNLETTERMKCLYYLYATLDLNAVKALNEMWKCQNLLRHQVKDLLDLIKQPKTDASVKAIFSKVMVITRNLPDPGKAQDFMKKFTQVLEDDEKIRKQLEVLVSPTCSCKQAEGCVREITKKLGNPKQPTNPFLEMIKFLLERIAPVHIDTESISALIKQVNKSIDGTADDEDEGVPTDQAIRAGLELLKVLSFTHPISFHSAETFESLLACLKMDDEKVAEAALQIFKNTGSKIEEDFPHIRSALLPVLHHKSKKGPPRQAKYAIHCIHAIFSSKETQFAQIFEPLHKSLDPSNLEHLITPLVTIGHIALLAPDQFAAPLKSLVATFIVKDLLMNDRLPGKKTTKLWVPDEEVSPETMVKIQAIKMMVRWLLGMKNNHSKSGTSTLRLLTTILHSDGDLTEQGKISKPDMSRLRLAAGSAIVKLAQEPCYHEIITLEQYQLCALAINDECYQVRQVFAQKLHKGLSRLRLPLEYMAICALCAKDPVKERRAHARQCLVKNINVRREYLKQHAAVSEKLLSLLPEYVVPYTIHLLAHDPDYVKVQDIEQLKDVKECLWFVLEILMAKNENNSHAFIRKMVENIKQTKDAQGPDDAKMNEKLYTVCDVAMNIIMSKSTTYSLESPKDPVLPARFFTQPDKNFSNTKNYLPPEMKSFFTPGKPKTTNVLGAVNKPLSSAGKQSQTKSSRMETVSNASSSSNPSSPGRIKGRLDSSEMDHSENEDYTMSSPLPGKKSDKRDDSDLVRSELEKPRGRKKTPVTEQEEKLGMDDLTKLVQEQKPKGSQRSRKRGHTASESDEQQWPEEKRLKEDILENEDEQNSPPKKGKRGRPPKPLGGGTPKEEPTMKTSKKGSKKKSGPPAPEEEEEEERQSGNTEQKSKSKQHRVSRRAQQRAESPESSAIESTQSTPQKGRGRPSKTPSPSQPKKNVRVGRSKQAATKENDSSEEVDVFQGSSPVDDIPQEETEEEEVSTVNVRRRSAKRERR

Pds5B^10HIS [5] = biological target: T3, Pds5B^10HIS; test: cross-linking; chemical crosslinking followed by mass spectrometry of purified bonsai cohesin (co-expressed subunits) bound to Pds5B; 102 inter- and 244 intramolecular crosslinks; details in the Supplementary Methods; conditions: both partners purified

Nc1ncnc2c1ncn2[C@@H]1O[C@H](COP(=O)(O)OP(=O)(O)OP(=O)(O)O)[C@@H](O)[C@H]1O [ATP]
radiolabelled ATPase assay, thin layer chromatography of released 32P-Pi [1]: The single point mutation largely abolished bonsai cohesin's ATPase activity | radiolabelled ATPase assay, thin layer chromatography of released 32P-Pi [2]: Bonsai trimers containing wild-type NBDs ... were able to hydrolyse ATP

Nc1ncnc2c1ncn2[C@@H]1O[C@H](COP(=O)(O)OP(=O)(O)OP(O)(O)=S)[C@@H](O)[C@H]1O [ATPγS]
differential scanning fluorimetry (thermal shift) [3]: presence of the slowly hydrolyzable ATP-analogue ATPyS, as well as a near physiological pH improved the stability

B1: Scc1^10HIS (natural protein, human, UniProt O60216 1-631, looked up)
chain: MFYAHFVLSKRGPLAKIWLAAHWDKKLTKAHVFECNLESSVESIISPKVKMALRTSGHLLLGVVRIYHRKAKYLLADCNEAFIKIKMAFRPGVVDLPEENREAAYNAITLPEEFHDFDQPLPDLDDIDVAQQFSLNQSRVEEITMREEVGNISILQENDFGDFGMDDREIMREGSAFEDDDMLVSTTTSNLLLESEQSTSNLNEKINHLEYEDQYKDDNFGEGNDGGILDDKLISNNDGGIFDDPPALSEAGVMLPEQPAHDDMDEDDNVSMGGPDSPDSVDPVEPMPTMTDQTTLVPNEEEAFALEPIDITVKETKAKRKRKLIVDSVKELDSKTIRAQLSDYSDIVTTLDLAPPTKKLMMWKETGGVEKLFSLPAQPLWNNRLLKLFTRCLTPLVPEDLRKRRKGGEADNLDEFLKEFENPEVPREDQQQQHQQRDVIDEPIIEEPSRLQESVMEASRTNIDESAMPPPPPQGVKRKAGQIDPEPVMPPQQVEQMEIPPVELPPEEPPNICQLIPELELLPEKEKEKEKEKEDDEEEEDEDASGGDQDQEERRWNKRTQQMLHGLQRALAKTGAESISLLELCRNTNRKQAAAKFYSFLVLKKQQAIELTQEEPYSDIIATPGPRFHII
notes: Scc1 (Rad21, Mcd1), human; also called Rad21; Mcd1
binding result (Pds5B^10HIS [4]): binds

B2: SA1 (natural protein, human, UniProt Q8WVM7 1-1258, looked up)
chain: MITSELPVLQDSTNETTAHSDAGSELEETEVKGKRKRGRPGRPPSTNKKPRKSPGEKSRIEAGIRGAGRGRANGHPQQNGEGEPVTLFEVVKLGKSAMQSVVDDWIESYKQDRDIALLDLINFFIQCSGCRGTVRIEMFRNMQNAEIIRKMTEEFDEDSGDYPLTMPGPQWKKFRSNFCEFIGVLIRQCQYSIIYDEYMMDTVISLLTGLSDSQVRAFRHTSTLAAMKLMTALVNVALNLSIHQDNTQRQYEAERNKMIGKRANERLELLLQKRKELQENQDEIENMMNSIFKGIFVHRYRDAIAEIRAICIEEIGVWMKMYSDAFLNDSYLKYVGWTLHDRQGEVRLKCLKALQSLYTNRELFPKLELFTNRFKDRIVSMTLDKEYDVAVEAIRLVTLILHGSEEALSNEDCENVYHLVYSAHRPVAVAAGEFLHKKLFSRHDPQAEEALAKRRGRNSPNGNLIRMLVLFFLESELHEHAAYLVDSLWESSQELLKDWECMTELLLEEPVQGEEAMSDRQESALIELMVCTIRQAAEAHPPVGRGTGKRVLTAKERKTQIDDRNKLTEHFIITLPMLLSKYSADAEKVANLLQIPQYFDLEIYSTGRMEKHLDALLKQIKFVVEKHVESDVLEACSKTYSILCSEEYTIQNRVDIARSQLIDEFVDRFNHSVEDLLQEGEEADDDDIYNVLSTLKRLTSFHNAHDLTKWDLFGNCYRLLKTGIEHGAMPEQIVVQALQCSHYSILWQLVKITDGSPSKEDLLVLRKTVKSFLAVCQQCLSNVNTPVKEQAFMLLCDLLMIFSHQLMTGGREGLQPLVFNPDTGLQSELLSFVMDHVFIDQDEENQSMEGDEEDEANKIEALHKRRNLLAAFSKLIIYDIVDMHAAADIFKHYMKYYNDYGDIIKETLSKTRQIDKIQCAKTLILSLQQLFNELVQEQGPNLDRTSAHVSGIKELARRFALTFGLDQIKTREAVATLHKDGIEFAFKYQNQKGQEYPPPNLAFLEVLSEFSSKLLRQDKKTVHSYLEKFLTEQMMERREDVWLPLISYRNSLVTGGEDDRMSVNSGSSSSKTSSVRNKKGRPPLHKKRVEDESLDNTWLNRTDTMIQTPGPLPAPQLTSTVLRENSRPMGDQIQEPESEHGSEPDFLHNPQMQISWLGQPKLEDLNRKDRTGMNYMKVRTGVRHAVRGLMEEDAEPIFEDVMMSSRSQLEDMNEEFEDTMVIDLPPSRNRRERAELRPDFFDSAAIIEDDSGFGMPMF
notes: SA1, human (146 kDa printed)
binding result (Pds5B^10HIS [5]): binds
